The values below come from US7387998B2, “STQ peptides” (New York University, priority 2003, dated 2008).

Where a SMILES comes first, the peptide text is derived from it.

Data set [1] relates to Human RPE cells on denatured laminin. Briefly: RPE cell adhesion to denatured laminin. The format is cell-based. The following applies: for blockade of RPE cell adhesion to denatured laminin: 30 min attachment, crystal violet OD 600 nm. On the procedure:
In vitro cell adhesion assays were conducted to determine whether the STQ-peptides bind to functional epitopes within denatured laminin that regulate cellular adhesion. Non-tissue culture treated 48-well plates were coated with denatured laminin. Human RPE cells were allowed to attach to the coated wells in the absence of STQ-peptide, in the presence of STQ-peptide at a concentration of 100 μg/ml, and in the presence of STQ-peptide at a concentration of 200 μg/ml.
(§1) Human denatured laminin (25 μg/ml) was immobilized on 48-well non-tissue culture treated plates. Wells were washed and incubated with 1% BSA (bovine serum albumin) in PBS (phosphate-buffered saline) for one hour at 37° C. Subconfluent RPE cells were harvested, washed, and resuspended in adhesion buffer containing RPMI-1640 medium, 1 mM MgCl2, 0.2 mM MnCl2, and 0.5% BSA. RPE cells (10^5) were resuspended in 200 μl of the adhesion buffer in the presence or absence of STQ-peptide at a concentration of 100 μg/ml or 200 μg/ml, and were added to each well and allowed to attach for 30 minutes at 37° C. The unattached cells were removed and the attached cells were stained for 10 minutes with crystal violet as described by Petitclerc, et al., Cancer Res. 1999; 59:2724-2730. The wells were washed three times with PBS and cell-associated crystal violet was eluted by addition of 100 μl of 10% acetic acid. Cell adhesion was quantified by measuring the optical density of eluted crystal violet at a wavelength of 600 nm.
A set of non-tissue culture treated 48-well plates were coated with native laminin in the presence of different concentrations of STQ-peptide according to the method described in Example 2 and by Petticlerc, et al., Cancer Res. 1999; 59:2724-2730. Another set of non-tissue culture treated plates were coated with denatured laminin in the presence of different concentrations of STQ-peptide. […] STQ-peptide had little effect on RPE cell adhesion to the wells coated with native laminin at any concentration of STQ-peptide tested (FIG. 3).

The test system of data set [2] is RPE cells on native laminin. Briefly: RPE cell adhesion to native laminin. Particulars: any concentration of STQ-peptide tested (FIG. 3). The format is cell-based, human. How it is done:
as §1
A set of non-tissue culture treated 48-well plates were coated with native laminin in the presence of different concentrations of STQ-peptide according to the method described in Example 2 and by Petticlerc, et al., Cancer Res. 1999; 59:2724-2730. […]

Data set [3] relates to metastatic B16 melanoma cells. Briefly: B16 melanoma metastasis in chick embryo lungs. The following applies: 100 ug/embryo intravenously with cells; 7 days incubation; versus no-STQ-peptide group. Format: in vivo. How it is done:
Twelve-day old chick embryos (obtained from SPAFAS, North Franklin, Conn.) were injected intravenously with metastatic B16 melanoma cells (Chambers, et al., J. Natl. Cancer Inst. 1992; 84:797-803) in the presence or absence of STQ-peptide (100 ug/embryo). For each experiment, eight to ten chicks were tested under each set of conditions, and the experiment was repeated three times. The embryos were incubated for 7 days and then sacrificed. The chick lungs were analyzed for metastasis. B16 melanoma metastases appeared as discrete black lesions. The metastases were quantified by counting the B16 tumor lesions on the surface of the chick lungs for the STQ-peptide and no-STQ-peptide groups. B16 melanoma metastasis was inhibited by greater than 95% in the STQ-peptide group as compared to the no-STQ-peptide group (FIG. 5).

For data set [4], the system named is bFGF-induced angiogenesis in chorioallantoic membrane (CAM). The data set is described as follows: bFGF-induced angiogenesis in the chick CAM model. The format is in vivo. Particulars: single intravenous injection 100 ug/embryo. The text has this: One angiogenesis assay measures angiogenesis in the chick chorioallantoic membrane (CAM) and is referred to as the CAM assay. The CAM assay is well known among those of ordinary skill in the art and has been used to measure both angiogenesis and neovascularization of tumor tissues (Ausprunk et al., Am. J. Pathol. 1975; 79:597-618 and Ossonski et al., Cancer Res. 1980; 40:2300-2309).
Angiogenesis was induced within the chorioallantoic membrane (CAM) of 10-day old chick embryos with bFGF. Twenty-four hours later, 8-10 of the embryos were treated with a single intravenous injection of STQ-peptide (100 ug/embryo). At the end of a 3-day incubation period, the CAM tissues were removed for analysis. […] The single injection of STQ-peptide inhibited bFGF by greater than 95% (FIG. 4). […] Eight to ten chick embryos were tested in each of the two groups, and the experiment was repeated three times for a total of 24-30 chick embryos tested.

Data set [5] relates to murine B16 melanoma cells on denatured laminin. The data set is described as follows: B16 melanoma cell adhesion to denatured laminin. Format: cell-based. The following applies: STQ-peptide-S 50 μg/ml. On the procedure: as §1
(§2) An adhesion assay was performed according to the method described in Example 2 and by Petticlerc, et al., Cancer Res. 1999; 59:2724-2730. Non-tissue culture treated 48-well plates were coated with denatured laminin in the absence of STQ-peptide-S and in the presence of STQ-peptide-S at a concentration of 50 μg/ml. […]

The subject of data set [6] is Human M21 melanoma cells on denatured laminin. The data set is described as follows: M21 melanoma cell adhesion to denatured laminin. The format is cell-based. Particulars: STQ-peptide-S 50 μg/ml. How it is done:
as §1, §2

For `CC[C@H](C)[C@H](NC(=O)[C@H](CC(C)C)NC(=O)[C@H](CO)NC(=O)[C@H](CC(C)C)NC(=O)[C@H](CC(C)C)NC(=O)[C@H](CCC(N)=O)NC(=O)[C@H](C)NC(=O)[C@H](CC(N)=O)NC(=O)[C@H](CCC(N)=O)NC(=O)[C@@H](NC(=O)[C@H](CO)NC(=O)[C@H](CS)NC(=O)CNC(=O)CNC(=O)[C@@H](N)CCCCN)[C@@H](C)O)C(=O)N[C@H](C(=O)NCC(=O)N[C@@H](CCCCN)C(=O)N[C@@H](C)C(=O)O)C(C)C` [STQ-peptide, NH2-K-G-G-C-S-T-Q-N-A-Q-L-L-S-L-I-V-G-K-A-COOH] (H-KGGCSTQNAQLLSLIVGKA-OH), the “blockade of RPE cell adhesion to denatured laminin” value in data set [1] (STQ-peptide 100 μg/ml) and in data set [1] (STQ-peptide 200 μg/ml) was “greater than 95%” each time. In addition, the “inhibition of RPE cell adhesion to wells coated with denatured laminin” value in data set [1] (different concentrations of STQ-peptide (FIG. 3)) was “concentration dependent inhibition”. For the same compound, in data set [2], the “effect on RPE cell adhesion to wells coated with native laminin” value is “little effect”. In addition, in data set [3], the “inhibition of B16 melanoma metastasis (lung surface lesions)” value is “greater than 95%”. The “adverse effects following injection” value in data set [4] (chick embryos) was “No adverse effects”. Moreover, in data set [4] (24 h after bFGF, 3-day incubation), the “inhibition of bFGF-induced angiogenesis (branching vessels)” value is given as “greater than 95%”.

Take “NH2-K-G-G-S-T-Q-N-A-Q-L-L-S-L-I-V-G-K-A-COOH (H-KGGSTQNAQLLSLIVGKA-OH) [STQ-peptide-S]”: the “blockade of B16 melanoma cell adhesion to denatured laminin” value in data set [5] is “approximately 80%”. Also, the “blockade of M21 melanoma cell adhesion to denatured laminin” value in data set [6] was “approximately 80%”.
